Laboratory results as given in patent US20110100079A1, “METHOD FOR IMPARTING STRESS TOLERANCE TO PLANT” (priority 2007, published 2011).

What was measured:
Type in all cases: in vivo
[1] = test system: Potato Variety: Toyoshiro; assay: Example 5 drying stress tolerance imparting test (potato variety Toyoshiro); conditions: pF 2.3, leaf, 3 weeks
Procedure: Other cultivation conditions were the same as the conditions of the drying stress test. Drying stress conditions: soil pF value: 2.3, 2.5, or 2.9, cultivation temperature: 23° C., relative humidity: 50%, illuminance: 5000 Lux (fluorescent light), light/dark cycle: 16 hours/8 hours (2) Cultivation Period: 3 weeks (3) Soil: Kureha gardening soil manufactured by Kureha Corporation (fertilizer components: N:P:K=0.4:1.9:0.6 g/kg soil) (4) The chemicals used and the amount of a treatment solution applied were the same as in Example 3. Method of Drying Stress Tolerance Imparting Test A planter (60 cm) was filled with Kureha gardening soil manufactured by Kureha Corporation (fertilizer components: N:P:K=0.4:1.9:0.6 g/kg soil) in a glass greenhouse, tubers of a “Thyoshiro” potato were cut in half: and 5 pieces thereof were planted in the planter, thinly covered with Kureha gardening soil, and sufficiently watered to allow the tubers to sprout. When the leaves in the 3-leaf stage fully unfolded, the Solarium tuberosu was relocated on a plant culture rack in an air-conditioned room, and a test was initiated. […] From immediately after the beginning of the test, a treatment solution of Table 1 was sprayed onto the leaves or applied to the underground portions once a week. […] Five specimens (per planter) were prepared for each of the test plot and the control plots, plant bodies were collected 3 weeks after the beginning of the test such that the roots were not cut, the soil was washed away with running water, the fresh plant body weights were measured, and a plant stress level and an extent of imparting plant stress tolerance were calculated according to Formula (ii) and (iii) above using the average of the weights.

“Momotaro” tomato [2] = assay: Example 3 drying stress tolerance imparting test (tomato); conditions: pF 2.3, leaf, 3 weeks
Procedure: Other cultivation conditions were as with the conditions of the drying stress test. Drying stress conditions: soil pF value: 2.3, 2.5, or 2.9, cultivation temperature: 23° C., relative humidity: 50%, illuminance: 5000 Lux (fluorescent light), light/dark cycle: 16 hours/8 hours (2) Cultivation period: 3 weeks (3) Soil: Kureha gardening soil manufactured by Kureha Corporation (fertilizer components: N:P:K=0.4:1.9:0.6 g/kg soil) (4) Plant preparation: A 50-cell tray was filled with Kureha gardening soil manufactured by Kureha Corporation (fertilizer components: N:P:K=0.4:1.9:0.6 g/kg soil), and seeds of a “Momotaro” tomato were sowed, thinly covered with Kureha gardening soil, and sufficiently watered to allow the seeds to sprout. When the leaves in the 2-leaf stage fully unfolded, the soil on the tomato roots was carefully washed away with running water, and a test was performed. (5) The chemicals used and the amount of a treatment solution applied were as in Example 1. (6) Amount of treatment solution applied: 10 ml/specimen for leaf spraying, 50 ml/specimen for fertigation Method of Drying Stress Tolerance Imparting Test Five tomato specimens as prepared above were planted in a 60-cm planter placed on a plant culture rack in an air-conditioned room. […] From immediately after planting the tomatoes, a treatment solution of Table 1 was sprayed onto the leaves or applied to the underground portions once a week. […] Five specimens (per planter) were prepared for each of the test plot and the control plots, plant bodies were collected 3 weeks after the beginning of the test such that the roots were not cut, the soil was washed away with running water, the fresh plant body-weights were measured, and a plant stress level and an extent of imparting plant stress tolerance were calculated according to Formula (ii) and (iii) above using the average of the weights.

“Momotaro” tomato [3] = assay: Standard test: standard extent of imparting plant salt stress tolerance; conditions: 100 ppm sprayed onto leaves 10 ml/specimen, NaCl 3510 ppm in tap water, fresh weight after 2 weeks vs salt-stressed untreated control plot 1
Procedure: Standard Test (I) Plant Preparation A 50-cell tray is filled with potting soil (fertilizer components: N:P:K=0.4:1.9:0.6 (g)/kg potting soil); and seeds of a “Momotaro” tomato (Takii Co., Ltd.) are sowed, thinly covered with potting soil, and sufficiently irrigated to allow the seeds to sprout. When the leaves in the 2-leaf stage are fully unfolded, the soil on the tomato roots is washed away with running water, and a test is performed. For the potting soil, Kureha gardening soil manufactured by Kureha Corporation may be used. (II) Test Condition Setting The environmental conditions are controlled such that the temperature is 23° C., the relative humidity is 50%, the illuminance is 5000 Lux, and the daily light-dark cycle includes a 16-hour light period and an 8-hour dark period. Such environmental conditions can be obtained by, for example, controlling the temperature in a room or a climate chamber where the temperature and the relative humidity can be controlled, and controlling illuminance by a fluorescent light or the like. […] (III) Treatment with Plant Stress Tolerance Imparting Composition […] A known surfactant or a like material that barely affects the plant may be used in the preparation of an aqueous dispersion. Test plot: An aqueous solution or an aqueous dispersion of a test compound (sugar derivative-type surfactant) (concentration: 100 ppm) is sprayed onto the leaves in an amount of 10 ml per tomato specimen. […] NaCl is added to a solution culture medium (creating a salt stress), but no test compound (plant stress tolerance imparting composition) is given to the tomato. Control plot 2: No NaCl is added to a solution culture medium (creating no salt stress), and no test compound (plant stress tolerance imparting composition) is given to the tomato. (IV) Calculation of Standard Extent of Imparting Plant Salt Stress Tolerance (%) […] The plant stress level (standard plant salt stress level) attained in the above-described standard test is about 130%. In this regard, the standard plant salt stress level can be calculated according to Formula (ii)′ below.

“Momotaro” tomato [4] = assay: Example 2 temperature stress tolerance imparting test (tomato); conditions: 32° C., leaf, 2 weeks
Procedure: Other cultivation conditions were the same as the conditions of the temperature stress test. […] (2) Solution culture medium: […] Method of Temperature Stress Tolerance Imparting Test The temperature in a climatic chamber was controlled so as to be 10, 15, or 32° C. The environmental conditions were controlled so as to have an illuminance by a fluorescent light of 5000 Lux and a daily light-dark cycle of a 16-hour light period and a 8-hour dark period. In this test, a temperature of 23° C. at which the optimum growth was observed was regarded as a reference temperature (temperature stress-free test condition), and a stress was imposed by applying a temperature higher or lower than the reference temperature. A tomato as prepared above was planted in a 250 ml polyethylene bottle filled with the solution culture medium (½ Otsuka A formulation). A treatment solution as presented in Table 1 was sprayed onto the leaves or applied to the underground portion. […] Ten specimens were prepared for each of the test plot and the control plots, and a plant stress level and an extent of imparting plant stress tolerance were calculated according to Formula (ii) and (iii) above using as a fresh plant body weight the average of the fresh plant body weights of each specimen 2 weeks after the beginning of the test.

Substance	Extent of imparting plant stress tolerance ([1]; 100 ppm once a week) [%]	Extent of imparting plant stress tolerance (“Momotaro” tomato [2]; 100 ppm once a week) [%]	Standard extent of imparting plant salt stress tolerance (“Momotaro” tomato [3]) [%]	Extent of imparting plant stress tolerance (“Momotaro” tomato [4]; 100 ppm) [%]	Extent of imparting plant stress tolerance ([1]; 200 ppm once a week) [%]	Extent of imparting plant stress tolerance (“Momotaro” tomato [2]; 200 ppm once a week) [%]	Extent of imparting plant stress tolerance (“Momotaro” tomato [4]; 200 ppm) [%]
POE (20) sorbitan monopalmitic acid ester [Product of present invention 13]	118	116	116	116			
POE (20) sorbitan monostearic acid ester [Product of present invention 14]	115	115	114	118			
Sorbitan monooleic acid ester [Product of present invention 11]	113	112	112	113			
Sucrose fatty acid ester (C16, HLB = 15) [Product of present invention 21]	118	117	117	116			
Sucrose fatty acid ester (C18, HLB = 9) [Product of present invention 18]	115	113	113	113			
Sucrose fatty acid ester (C18, HLB = 11) [Product of present invention 19]	117	115	114	114			
Sucrose fatty acid ester (C18, HLB = 15) [Product of present invention 20]	118	117	116	115			
Sucrose fatty acid ester (C18:1, HLB = 15) [Product of present invention 22]	119	117	118	115	114	113	113
